In PMC7006686, “A class of carbonic anhydrase IX/XII – selective carboxylate inhibitors” (Journal of Enzyme Inhibition and Medicinal Chemistry, 2020):
Like-named read-outs stand apart in the source and are kept apart here.

Experiments:
Experiment in all cases: stopped-flow CO2 hydrase assay
Assay type in all cases: biochemical
hCA I = molecular target: T1, hCA I (Homo sapiens, UniProt P00915)
T1 construct: gene CA1; recombinant, obtained in-house; cytosolic isoform
Excerpt: stopped-flow CO2 hydrase assay on hCA I

hCA II = molecular target: T2, hCA II (Homo sapiens, UniProt P00918)
T2 construct: gene CA2; recombinant, obtained in-house; cytosolic isoform
Excerpt: stopped-flow CO2 hydrase assay on hCA II

hCA IX = molecular target: T3, hCA IX (Homo sapiens, UniProt Q16790)
T3 construct: gene CA9; recombinant, obtained in-house
Excerpt: stopped-flow CO2 hydrase assay on hCA IX

hCA XII = molecular target: T4, hCA XII (Homo sapiens, UniProt O43570)
T4 construct: gene CA12; recombinant, obtained in-house
T4 sequence (O43570 25-354): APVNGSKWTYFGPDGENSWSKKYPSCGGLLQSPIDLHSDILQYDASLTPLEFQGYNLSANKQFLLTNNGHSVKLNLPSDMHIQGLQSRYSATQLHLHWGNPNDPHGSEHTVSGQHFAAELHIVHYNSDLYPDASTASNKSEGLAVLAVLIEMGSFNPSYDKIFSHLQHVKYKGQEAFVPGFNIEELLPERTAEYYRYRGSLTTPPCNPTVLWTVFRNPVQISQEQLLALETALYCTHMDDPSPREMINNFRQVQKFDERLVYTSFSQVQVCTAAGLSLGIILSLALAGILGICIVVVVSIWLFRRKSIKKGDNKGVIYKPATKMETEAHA
Excerpt: stopped-flow CO2 hydrase assay on hCA XII

T1 sequence (P00915 2-261): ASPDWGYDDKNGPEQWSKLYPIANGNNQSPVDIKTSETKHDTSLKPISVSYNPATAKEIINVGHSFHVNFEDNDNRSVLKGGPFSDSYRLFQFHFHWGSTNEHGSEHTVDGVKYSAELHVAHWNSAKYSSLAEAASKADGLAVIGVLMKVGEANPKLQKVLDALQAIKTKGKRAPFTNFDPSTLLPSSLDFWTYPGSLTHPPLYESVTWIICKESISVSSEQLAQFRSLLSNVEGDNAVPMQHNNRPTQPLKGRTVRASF

Structure (SMILES)	Ki (hCA I) [µM]	Ki (hCA II) [µM]	Ki (hCA IX; read-out: hCA IX) [µM]	Ki (hCA XII) [µM]	Ki (hCA IX; read-out: hCA I) [µM]
O=C(O)CN1C(=O)SC(=Cc2ccccc2Cl)C1=O [3d, 2-(5-(2-chlorobenzylidene)-2,4-dioxothiazolidin-3-yl)acetic acid]	> 100	> 100	24.1	0.47	–
O=C(O)CN1C(=O)SC(=Cc2ccccc2)C1=O [3a, 2-(5-benzylidene-2,4-dioxothiazolidin-3-yl)acetic acid]	> 100	> 100	22.2	0.58	–
COc1ccc(C=C2SC(=O)N(CC(=O)O)C2=O)cc1 [3f, 2-(5-(4-methoxybenzylidene)-2,4-dioxothiazolidin-3-yl) acetic acid]	> 100	> 100	3.2	0.85	–
COc1cccc(C=C2SC(=O)N(CC(=O)O)C2=O)c1 [3g, 2-(5-(3-methoxybenzylidene)-2,4-dioxothiazolidin-3-yl) acetic acid]	> 100	> 100	–	0.3	> 100

Second part, the compound after the results:

Ki (hCA I) [µM]	Ki (hCA II) [µM]	Ki (hCA IX; read-out: hCA IX) [µM]	Ki (hCA XII) [µM]	Ki (hCA IX; read-out: hCA I) [µM]	Structure (SMILES)
> 100	> 100	33.3	0.91	–	O=C(O)CN1C(=O)SC(=Cc2ccc(Br)cc2)C1=O [3e, 2-(5-(4-bromobenzylidene)-2,4-dioxothiazolidin-3-yl)acetic acid]
> 100	> 100	–	0.93	> 100	Cc1ccc(C=C2SC(=O)N(CC(=O)O)C2=O)cc1 [3b]
> 100	> 100	3.1	0.66	–	O=C(O)CN1C(=O)SC(=Cc2ccc(Cl)cc2)C1=O [3c, 2-(5-(4-chlorobenzylidene)-2,4-dioxothiazolidin-3-yl)acetic acid]
